In assay [1] the test system is rats with PDD. Briefly: T-maze test (working memory) in MPTP-HCl-induced PDD rats. The format is in vivo, male Wistar rats. On the procedure:
1-methyl-4-phenyl-1,2,3,6-tetrahydropyridine hydrochloride (MPTP-HCl) was used to induce PDD in the rats, and the therapeutic effect of ceftriaxone on PDD was evaluated via behavioral tests and histopathological assessment of the brain for the rats. The experiments of this example were conducted substantially according to the method as described in Ho Y. J. et al. (2011), Behav. Brain Res., 219:280-290.
The rats in the pathological control group, the preventive groups, and the treatment groups were anesthetized using Zoletil (Virbac, Carros, France; 20 mg/kg, intraperitoneal injection). Afterward, 0.5 M MPTP-HCl (in saline) was slowly infused bilaterally into the substantia nigra pars compacta (SNc) of the mesencephalon of each rat in the pathological control group, the preventive groups, and the treatment groups (0.21 mg/side) so as to induce the same to develop PDD.
5 days before the MPTP-HCl injection, ceftriaxone (Sigma) was administered to the rats in the preventive groups 1,2 via […] day after the MPTP-HCl injection. After the MPTP-HCl injection, […] 2,3 via intraperitoneal injection respectively at a daily dose of 200 mg/kg, at a daily dose of 100 mg/kg, and at a daily dose of 200 mg/kg, and saline was administered to the rats in the pathological control group and the sham-operated group 1 via intraperitoneal injection at a daily dose of 1 mL/kg. […] The rats in the pathological control group, the treatment groups 1,2,3, and the sham-operated groups 1,2,3 were subjected to the once-a-day administration until the end of the 14th day after the MPTP-HCl injection.
Starting on the 8th day after the MPTP-HCl injection, the rats in each group were subjected to the T-maze test as described in section C of this example. Starting on the 12th day after the MPTP-HCl injection, the rats in each group were subjected to the object recognition test as described in section D of this example. On the 15th day after the MPTP-HCl injection, the rats in the treatment group 1, the sham-operated group 1, and the pathological control group were subjected to the histopathological analysis as described in section E of this example.
In order to investigate the effect of ceftriaxone on the working memory of the rats with PDD, on the 8th day after the MPTP-HCl injection, 11 rats, 32 rats, and 36 rats were randomly selected respectively from the treatment group 1, the sham-operated group 1, and the pathological control group, and the aforesaid randomly selected rats and each of the rats in the rest of the groups were subjected to a T-maze test. The T-maze test lasted a total of three days, and was conducted substantially according to the following methods: • (1) One day before the start of the T-maze test, the rats are subjected to 23 hours of fasting. Furthermore, on each of three days for the training session, after all of trials were finished, the rats were fed for an hour. • (2) The training session—the 1st and 2nd days of the T-maze test: • The respective rat is subjected to a total of 9 trials. In each of the trials, one forced run and one choice run were sequentially conducted. The time interval between the forced run and the choice run was 30 seconds. The respective rat was placed at the start end 11 of the T-maze to begin either the forced run or the choice run. When the forced run was conducted, the sliding door 22 of one of the two choice arms 2 was closed, and a food serving as a reward was placed at the terminal end 21 of the other one of the two choice arms 2.

For assay [2], the system named is rats with PDD. In words: Immunohistochemical staining (OX-6) of activated microglia in the SNc of PDD rats. The format is in vivo, male Wistar rats. As to conditions: Example 1 treatment group 1: 200 mg/kg daily i.p. for 14 days after MPTP-HCl; determined 15th day (FIG. 5). From the text:
(§1) In order to investigate whether ceftriaxone is effective in ameliorating neuroinflammation and neurodegeneration of the rats with PDD, on the 15th day after the MPTP-HCl injection, four rats were randomly selected from each of the treatment group 1, the sham-operated group 1, and the pathological control group for histopathological analysis.
(§2) The randomly selected rats were sacrificed using CO2, followed by perfusion with 4% paraformaldehyde (in phosphate buffered saline). The brains were rapidly removed and were post-fixed in a 30% sucrose solution containing 4% paraformaldehyde at 4° C. for at least three days. The brains were cut into coronal sections (a thickness of about 30 μm) using a cryostat (Leica CM3050 S, Leica).
The sections containing SNc were selected. […]
The experimental data are expressed as mean±SEM. The experimental data were subjected to one-way ANOVA and were subsequently subjected to LSD test such that the difference between the pathological control group and the sham-operated group 1, and the difference between the treatment group 1 and the pathological control group could be evaluated. […]

Assay [3] deals with rats with PDD. Briefly: Nissl staining of pyramidal neurons in the hippocampal CA1 area of PDD rats. As to conditions: Example 1 treatment group 1: 200 mg/kg daily i.p. for 14 days after MPTP-HCl; determined 15th day (FIG. 6). The format is in vivo, male Wistar rats.
Excerpt: as §1, §2
In addition, the sections containing the hippocampal CA1 area were selected and were subjected to Nissl staining according to the method well known to and commonly used by one skilled in the art. […] Image Pro Plus Software 6.0 was utilized to estimate the percentage of an area occupied by pyramidal neurons in an area of 2,354 μm^2 according to the semi-quantitative method as described in Xavier L. L. et al. (2005), Brain Research protocols, 16:58-64.
The experimental data are expressed as mean±SEM. […]

Another assay deals with aged-impaired (AI) rats. The conditions noted are these: daily dose of 200 mg/kg for 7 days; cited from earlier work.
Assay [4] relates to rats chronically exposed to hypobaric hypoxia. As to conditions: cited from earlier work.

Each structure is given as a SMILES string.

In the case of `CO/N=C(\C(=O)N[C@@H]1C(=O)N2C(C(=O)O)=C(CSc3nc(=O)c(=O)[nH]n3C)CS[C@H]12)c1csc(N)n1` [ceftriaxone, Ceftriaxone], the “correct response rate compared to the pathological control group” value in the assay on rats with PDD [1] (Example 1 preventive group 1: 100 mg/kg daily i.p. from 5 days before MPTP-HCl to 14th day after, determined 10th day (FIG. 3)) is reported as “higher”; with rats with PDD [1] (Example 1 preventive group 2: 200 mg/kg daily i.p. from 5 days before MPTP-HCl to 14th day after, determined 10th day (FIG. 3)), “higher”; in the assay on rats with PDD [1] (Example 1 treatment group 1: 200 mg/kg daily i.p. after MPTP-HCl injection to 14th day, determined 10th day, difference statistically significant (FIG. 3)), “higher”; with rats with PDD [1] (Example 1 treatment group 2: 100 mg/kg daily i.p. starting 3rd day after MPTP-HCl to 14th day, determined 10th day, difference statistically significant (FIG. 3)) it was “higher”; in the assay on rats with PDD [1] (Example 1 treatment group 3: 200 mg/kg daily i.p. starting 3rd day after MPTP-HCl to 14th day, determined 10th day, difference statistically significant (FIG. 3)), “higher”; in the assay with rats with PDD [1] (Example 2 treatment group 1: 10 mg/kg daily i.p. after MPTP-HCl injection to 14th day, determined 10th day (FIG. 7)), “significantly higher”. Also, the “correct response rate compared to the pathological control group” value in the assay on rats with PDD [1] (Example 2 treatment group 2: 50 mg/kg daily i.p. after MPTP-HCl injection to 14th day, determined 10th day (FIG. 7)) is “significantly higher”. Moreover, the “density of activated microglia in the SNc compared to the pathological control group” value in the assay with rats with PDD [2] is “significantly lower”. Besides, in the assay with rats with PDD [3], the “percentage of an area occupied by pyramidal neurons in the hippocampal CA1 area compared to the pathological control group” value is reported as “significantly higher”. In the assay on aged-impaired (AI) rats, the cognitive impairment result is given as “able to ameliorate cognitive impairment of the AI rats”. For the same compound, the “cognitive impairment resulting from hypobaric hypoxia” value in assay [4] is recorded as “capable of ameliorating the cognitive impairment resulting from hypobaric hypoxia”. Moreover, the “neuronal degeneration and chromatin condensation” value in assay [4] was “decreasing neuronal degeneration and chromatin condensation”. For the same compound, the “oxidative stress in the hippocampus” value in assay [4] is “reducing oxidative stress in the hippocampus”.

(Values after patent publication US9326988B2, “Treatment and/or prevention of parkinson's disease dementia with ceftriaxone” (CHUNG SHAN MEDICAL UNIVERSITY, priority 2012, dated 2016).)
